The values that follow come from ChEMBL document CHEMBL1201862, “PubChem BioAssay data set” (2004).

Assay in all cases: NCI tumour cell line growth inhibition, 48 h
Experiment [1] has as its system BT-549.
In experiment [2] the test system is NCI/ADR-RES.
The test system of experiment [3] is SK-OV-3.
Experiment [4] relates to HCT-116.
Experiment [5] deals with HOP-62.
In experiment [6] the test system is K562.
The test system of experiment [7] is ACHN.
Experiment [8] deals with A549.
Experiment [9] deals with RXF 393.
The test system of experiment [10] is UACC-62.
The subject of experiment [11] is OVCAR-4.
Experiment [12] has as its system COLO 205.
Experiment [13] deals with SF-295.
In experiment [14] the test system is OVCAR-8.
For experiment [15], the system named is NCI-H460.
Experiment [16] has as its system OVCAR-3.
Experiment [17] relates to NCI-H23.
For experiment [18], the system named is HCT-15.
The test system of experiment [19] is SR.
The subject of experiment [20] is CAKI-1.

Structures are written as SMILES.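 A five-concentration, 48-hour dose response in 96-well plates underlies each endpoint, interpolated linearly between surrounding concentrations. GI50 marks 50% less growth.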 The source made the active and inactive calls. Cut-off read from the data, not from the text of the source: active = GI50 up to about 1.1 µM and inactive = higher. Where a SMILES comes first, the peptide text is derived from it. [ ]: non-standard residue; d: D form. The star is where a group is joined. Octanoyl = CCCCCCCC(=O)*; Aib = CC(C)(N)C(=O)O; tBu = CC(C)(C)* A value given as a limit tells only on which side of the number the result lay.

As for `CCCCCCCC(=O)NC(C)(C)C(=O)NC(COC(C)(C)C)C(=O)NC(CC(C)C)C(=O)NC(C)(C)C(=O)NC(COC(C)(C)C)C(=O)NC(COC(C)(C)C)C(=O)NC(CC(C)C)C(=O)NC(C)(C)C(=O)NC(COC(C)(C)C)C(=O)NC(C(=O)NC(CC(C)C)C(=O)OC)C(C)CC` (stereo not given) (Octanoyl-[Aib]S(tBu)L[Aib]S(tBu)S(tBu)L[Aib]S(tBu)IL-OMe; configuration not given here), the GI50 was 5.38 µM (inactive) in experiment [1]; > 25 µM (inactive) in experiment [2]; 11.8 µM (inactive) in experiment [3]; 7.18 µM (inactive) in experiment [4]; 9.31 µM (inactive) in experiment [5]; 5.52 µM (inactive) in experiment [6]. For the same compound, the GI50 in [7] was 7.62 µM (inactive); in experiment [8], 8.18 µM (inactive); in [9], 3.57 µM (inactive); in experiment [10], 7.8 µM (inactive); in experiment [11] it was 8.63 µM (inactive); in experiment [12] it was 6.55 µM (inactive). Besides, the GI50 in experiment [13] is 6.4 µM (inactive); in experiment [14], 8.65 µM (inactive); in experiment [15], 5.64 µM (inactive); in [16] it was 4.85 µM (inactive); in [17], 4.7 µM (inactive); in experiment [18], 8.13 µM. Moreover, the GI50 in experiment [19] was 5.62 µM (inactive); in [20], 18.5 µM (inactive).
